SMILES strings stand for the structures.

Assay [1] concerns Peripheral blood mononuclear cells (PBMC). Kind of assay: TNFα secretion from PBMCs. Type of assay: cell-based. Particulars: human PBMCs, 18 hours incubation, MILLIPLEX bead panel. How it is done:
Peripheral blood mononuclear cells (PBMC) were isolated from healthy human volunteers and banked in liquid nitrogen. Vial of frozen PBMC was thawed in 37° C. water bath for no more than 2 minutes. The contents of the tube were aseptically transferred to pre-warmed complete media containing RPMI basal media (Gibco-21875034) supplemented with 10% HI-FBS (Aus origin) (Gibco-10100-147) and 1% penicillin/streptomycin (Gibco-15140-122-100 ml) followed by centrifugation. Cells were resuspended in complete media (3 ml) and counted using haemocytometer.
All selected compounds (Five benchmark and 15 example molecules) were prepared in 100% DMSO (Sigma-D2650) (10 mM stock). The compounds were serially diluted in 100% DMSO (4 fold) up to 8 point DRC in U-bottom 96 well plate (Cellstar-650180). 3 μl of this serially diluted DRC was mixed with 97 μl of completed media (1:33.33) as intermediate dilution (300 μM) 3% DMSO. 11 μl of compounds from intermediate dilution was added to the PBMC plate (1:10) such that final concentration of DMSO in the culture plate is 0.3% and starting concentration of the compounds is 30 μM. Resiquimod (30 μM) and DMSO (0.3%) were used as positive and negative controls respectively.
The plate was incubated at 37° C. with 5% CO2 for 18 hours. Post incubation, the plate was spun at 2000 rpm for 5 min and supernatant was gently aspired and collected in protein low binding V-bottom 96 well plates (Thermo Fisher-249944). The supernatant plates were sealed, labelled appropriately and stored at −80° C. till cytokine analysis (<1 month).
MILLIPLEX MAP Human Cytokine/Chemokine Magnetic Bead Panel kit (HCYTOMAG-60K) was used for measuring TNF alpha as per the kit's recommendation.
EC50 were determined using Graph Pad Prism Statistical software (Version 7.05), with individual data points represent the absorbance values of duplicates.

Assay [2] concerns the target T1, hTLR7 (Homo sapiens, UniProt Q9NYK1).
T1 construct: host or cells: HEK-Blue hTLR7 (HEK293-derived SEAP reporter cells)
T1 sequence (Q9NYK1 27-1049): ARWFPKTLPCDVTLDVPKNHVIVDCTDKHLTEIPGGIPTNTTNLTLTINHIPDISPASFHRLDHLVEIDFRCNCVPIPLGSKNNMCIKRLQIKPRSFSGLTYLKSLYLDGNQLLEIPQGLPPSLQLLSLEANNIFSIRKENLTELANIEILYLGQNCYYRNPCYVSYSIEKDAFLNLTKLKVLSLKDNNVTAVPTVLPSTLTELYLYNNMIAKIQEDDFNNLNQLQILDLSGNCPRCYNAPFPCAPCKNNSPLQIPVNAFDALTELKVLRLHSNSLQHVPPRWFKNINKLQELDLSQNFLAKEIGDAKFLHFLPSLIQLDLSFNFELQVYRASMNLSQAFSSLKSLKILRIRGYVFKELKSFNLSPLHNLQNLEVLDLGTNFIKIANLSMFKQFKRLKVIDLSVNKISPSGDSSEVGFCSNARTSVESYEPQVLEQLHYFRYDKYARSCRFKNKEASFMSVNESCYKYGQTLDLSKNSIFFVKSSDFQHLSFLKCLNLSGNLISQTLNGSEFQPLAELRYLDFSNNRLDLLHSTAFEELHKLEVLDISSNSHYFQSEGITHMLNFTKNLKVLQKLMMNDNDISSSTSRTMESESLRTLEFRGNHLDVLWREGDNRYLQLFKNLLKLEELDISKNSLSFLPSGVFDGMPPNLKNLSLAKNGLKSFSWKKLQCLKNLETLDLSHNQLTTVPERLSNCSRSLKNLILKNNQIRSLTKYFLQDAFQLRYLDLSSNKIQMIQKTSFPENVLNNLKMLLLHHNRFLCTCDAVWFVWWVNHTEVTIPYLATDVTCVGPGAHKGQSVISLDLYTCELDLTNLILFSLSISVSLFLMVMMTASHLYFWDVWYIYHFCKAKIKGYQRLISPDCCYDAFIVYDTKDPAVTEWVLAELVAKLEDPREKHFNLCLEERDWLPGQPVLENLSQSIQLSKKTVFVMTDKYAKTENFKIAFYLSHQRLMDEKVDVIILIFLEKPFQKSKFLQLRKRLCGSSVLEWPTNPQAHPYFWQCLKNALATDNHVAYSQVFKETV
Kind of assay: TLR7 reporter assay in HEK-Blue cells (SEAP, Quanti-Blue). The format is cell-based. Particulars: 24 hours incubation, SEAP absorbance at 620 nm. How it is done: HEK-Blue™ TLR7 and TLR8 cell lines were obtained from InvivoGen (San Diego, CA, USA). HEK-Blue cells were cultured in DMEM medium hi glucose (Gibco-10569010) supplemented with 10% HI-FBS (Aus origin) (Gibco-10100-147), 1% penicillin/streptomycin (Gibco-15140-122-100 ml) as per manufacturer's recommendation. In addition, specific antibiotic mixtures were added to the culture. 100 μg/ml Zeocin (11006-33-0), 10 μg/ml Blasticidin (ant-bl-05), 50 μg/ml Normocin (ANT-NR-1-500 MG) for HEK-Blue™ hTLR7 and 100 μg/ml Zeocin, 30 μg/ml Blasticidin, 50 μg/ml Normocin for HEK-Blue™ hTLR8 cells (all from InvivoGen).
All the compounds were prepared in 100% DMSO (Sigma-D2650). The compounds were serially diluted in 100% DMSO (3 fold) up to 10 point dose response curve starting with 30 μM; final concentration of DMSO in the plate was 0.3%. Resiquimod and TL8-506 (InvivoGen-tlrl-t18506) were used as controls. 0.3% DMSO and 10 μM Resiquimod were used as min and max respectively, and % activation was calculated using following formula:
% Activation: {100−(max absorbance−absorbance)/(max absorbance−min absorbance)}×100.
For stimulation with TLR7/8 agonists, cells were resuspended in complete media and 40 μl of cell suspension (10,000 cells/well) was seeded on day 1 in 384 well assay plate (Thermo Scientific™ Nunc-164688) having pre-dispensed compounds with Echo Liquid handler. The plate was spun at 100 g for 1 min to settle down the cells and incubated at 37° C. with 5% CO2 for 24 hours. For measuring production of SEAP after 24 hrs of incubation, 10 μl of Quanti-Blue™ solution (InvivoGen rep-qbs2) prepared according to manufacturer's instructions was added in dark to the assay plate and incubated at 37° C. with 5% CO2 for 30 min. Post incubation, the absorbance was measured at 620 nm in Tecan spark (Spark control Magellan). EC50 were determined using Graph Pad Prism Statistical software (Version 7.05), with individual data points represent the absorbance values of duplicates.
On the technique in general: Reporter assays use an easily measured gene product as a stand-in for the process of interest.

For orientation: EC50 means the concentration at which the effect is half-maximal. The low end stands for higher potency in that assay, the high end for lower potency in that assay. On to `CCOCc1nc2c(N)nc3ccccc3c2n1CC(C)(C)OCCCN1CCN(C)CC1` [Example 2], for which the figures for the EC50 in assay [1] and in assay [2] were 100 to 1000 nM and 10 to 100 nM, respectively.

On to `CCOCc1nc2c(N)nc3ccccc3c2n1CC(C)(C)OCCCCN1CCNCC1` [Example 10], for which the EC50 in assay [1] was in the range of 100 to 1000 nM; in assay [2], 10 to 100 nM.

Regarding `CCOCc1nc2c(N)nc3ccccc3c2n1CC(C)(C)OCCCCN1CCN(CC(C)(C)SC)CC1` [Example 27], the figures for the EC50 in assay [1] and in assay [2] were 1000 to 10000 nM and 10 to 100 nM, respectively.

As to `CCOCc1nc2c(N)nc3ccccc3c2n1CC(C)(C)OCCCCN1CCCC1` [Example 9], the figures for the concentration giving a half-maximal response (EC50) in assay [1] and in assay [2] were over 10000 nM and 10 to 100 nM, respectively.

As for `CCNCc1nc2c(N)nc3ccccc3c2n1CC(C)(C)OCCCCN1CCN(C)CC1` [Example 18], the EC50 in assay [1] and in assay [2] was 1000 to 10000 nM each time.

For the compound `CCOCc1nc2c(N)nc3ccccc3c2n1CC(C)(C)OCCCCn1cc(CO)nn1` [Example 13], the EC50 lay within 100 to 1000 nM in assay [1] and 10 to 100 nM in assay [2].

As to `CCOCc1nc2c(N)nc3ccccc3c2n1CC(C)(C)OCCCCn1cc(CN)nn1` [Example 14], the results for the concentration for a half-maximal effect (EC50) in assay [1] and in assay [2] were 100 to 1000 nM and 10 to 100 nM, respectively.

Turning to `CCOCc1nc2c(N)nc3ccccc3c2n1CC(C)(C)OCCCCN1CCN(CCN)CC1` [Example 11], the concentration giving a half-maximal response (EC50) fell in the range of 1000 to 10000 nM in assay [1] and 100 to 1000 nM in assay [2].

On to `CCOCc1nc2c(N)nc3ccccc3c2n1CC(C)(C)OCCCCN1CCN(C)CC1` [Example 3], for which the EC50 in assay [1] is under 100 nM; in assay [2], under 10 nM.

Consider `CCOCc1nc2c(N)nc3ccccc3c2n1CC(C)(C)OCCCCCN1CCN(C)CC1` [Example 4], for which the EC50 was under 100 nM in assay [1] and under 10 nM in assay [2].

Consider `CCOCc1nc2c(N)nc3ccccc3c2n1CC(C)(C)OCCCCN1CCOCC1` [Example 7], for which the concentration for a half-maximal effect (EC50) in assay [1] was 100 to 1000 nM; in assay [2], 10 to 100 nM.

In the case of `CCOCc1nc2c(N)nc3ccccc3c2n1CC(C)(C)OCCCCN1CCCCC1` [Example 8], the values for the EC50 in assay [1] and in assay [2] were 1000 to 10000 nM and 10 to 100 nM, respectively.

Take `CCOCc1nc2c(N)nc3ccccc3c2n1CC(C)(C)OC(=O)CN` [Example 19]: the figures for the concentration giving a half-maximal response (EC50) in assay [1] and in assay [2] were under 100 nM and 100 to 1000 nM, respectively.

These data come from patent US20260193250A1, “TOLL-LIKE RECEPTOR 7 AGONISTS AS IMMUNE-STIMULATORS TO ELICIT THE INNATE ANTITUMOR IMMUNITY” (Merck Patent GmbH, priority 2022, published 2026).
